US20220227785A1, “NOVEL PHENYL AND PYRIDYL UREAS ACTIVE AGAINST THE HEPATITIS B VIRUS (HBV)” (AICURIS GMBH & CO. KG, priority 2019, published 2022)

The compounds below were run on HBV in HepAD38 cells. Conditions: Hepatitis B virus, HePAD38, 144 h, read-out: Cell activity.

Compound | EC50
O=C(O)c1ccc(C2(NC(=O)c3cnn4c3CN(C(=O)Nc3ccc(F)c(Cl)c3)CC4)CC2)cc1 [Example 17, 4-(1-{5-[(3-chloro-4-fluorophenyl)carbamoyl]-4H,5H,6H,7H-pyrazolo[1,5-a]pyrazine-3-amido}cyclopropyl)benzoic acid] | < 100000 nM
COCC1(N(C)C(=O)c2noc3c2CN(C(=O)Nc2ccc(F)c(Cl)c2)CC3)CC1 [Example 3, N5-(3-chloro-4-fluorophenyl)-N3-[1-(methoxymethyl)cyclopropyl]-N3-methyl-4H,5H,6H,7H-[1,2]oxazolo[4,5-c]pyridine-3,5-dicarboxamide] | < 1000 nM
CC1Cn2cnc(C(=O)N(C)C3(c4cccc(C(=O)O)c4)CC3)c2CN1C(=O)Nc1ccc(F)c(Cl)c1 (centres unmarked) [Example 14, 3-(1-{N-methyl7-[(3-chloro-4-fluorophenyl)carbamoyl]-6-methyl-5H,6H,7H,8H-imidazo[1,5-a]pyrazine-1-amido}cyclopropyl)benzoic acid] | < 1000 nM
CN(C(=O)c1cnn2c1CN(C(=O)Nc1ccc(F)c(Cl)c1)CC2)C1(c2nccc(C(=O)O)n2)CC1 [Example 15, 2-(1-{N-methyl-5-[(3-chloro-4-fluorophenyl)carbamoyl]-4H,5H,6H,7H-pyrazolo[1,5-a]pyrazine-3-amido}cyclopropyl)pyrimidine-4-carboxylic acid] | 1000 to 10000 nM
CN(C(=O)c1cnn2c1CN(C(=O)Nc1ccc(F)c(Cl)c1)CC2)C1(c2ccc(C(=O)O)cc2)CC1 [Example 2, 4-(1-{N-methyl-5-[(3-chloro-4-fluorophenyl)carbamoyl]-4H,5H,6H,7H-pyrazolo[1,5-a]pyrazine-3-amido}cyclopropyl)benzoic acid] | < 1000 nM
O=C(O)c1cnc(C2(NC(=O)c3cnn4c3CN(C(=O)Nc3ccc(F)c(Cl)c3)CC4)CC2)nc1 [Example 5, 2-(1-{5-[(3-chloro-4-fluorophenyl)carbamoyl]-4H,5H,6H,7H-pyrazolo[1,5-a]pyrazine-3-amido}cyclopropyl)pyrimidine-5-carboxylic acid] | < 1000 nM
CN1C(=O)c2c3c(nn2CC12CC2)CCN(C(=O)Nc1ccc(F)c(Cl)c1)C3 [Example 4, N-(3-chloro-4-fluorophenyl)-4′-methyl-3′-oxo-4′,7′,8′,12′-tetraazaspiro[cyclopropane-1,5′-tricyclo[7.4.0.0^2,7]tridecane]-1′,8′-diene-12′-carboxamide] | < 1000 nM
CN(C(=O)c1cnn2c1CN(C(=O)Nc1ccc(F)c(Cl)c1)CC2)C1(c2ccccc2C(=O)O)CC1 [Example 29, 2-(1-{N-methyl-5-[(3-chloro-4-fluorophenyl)carbamoyl]-4H,5H,6H,7H-pyrazolo[1,5-a]pyrazine-3-amido}cyclopropyl)benzoic acid] | < 1000 nM
CCN1C(=O)c2c3c(nn2CCC12CC2)CCN(C(=O)Nc1ccc(F)c(Cl)c1)C3 [Example 28, N-(3-chloro-4-fluorophenyl)-13′-ethyl-14′-oxo-4′,8′,9′,13′-tetraazaspiro[cyclopropane-1,12′-tricyclo[7.5.0.0^2,^7]tetradecane]-1′,7′-diene-4′-carboxamide] | < 1000 nM
CN1C(=O)c2c3c(nn2CCC12CC2)CCN(C(=O)Nc1ccc(F)c(Cl)c1)C3 [Example 11, N-(3-chloro-4-fluorophenyl)-13′-methyl-14′-oxo-4′,8′,9′,13′-tetraazaspiro[cyclopropane-1,12′-tricyclo[7.5.0.0^2,^7]tetradecane]-1′,7′-diene-4′-carboxamide] | < 1000 nM
CN(C(=O)c1cnn2c1CN(C(=O)Nc1ccc(F)c(Cl)c1)CC2)C1(Cc2ccc(C(=O)O)cc2)CC1 [Example 16, 4-[(1-{N-methyl-5-[(3-chloro-4-fluorophenyl)carbamoyl]-4H,5H,6H,7H-pyrazolo[1,5-a]pyrazine-3-amido}cyclopropyl)methyl]benzoic acid] | < 1000 nM
CN1C(=O)c2c3c(nn2CC12CC2)CCN(C(=O)Nc1ccc(F)c(F)c1)C3 [Example 10, N-(3,4-difluorophenyl)-4′-methyl-3′-oxo-4′,7′,8′,12′-tetraazaspiro[cyclopropane-1,5′-tricyclo[7.4.0.0^2,^7]tridecane]-1′,8′-diene-12′-carboxamide] | < 1000 nM
CN(C(=O)c1[nH]nc2c1CN(C(=O)Nc1ccc(F)c(Cl)c1)CC2)C1(c2ccc(C(=O)O)cc2)CC1 [Example 13, 4-(1-{N-methyl-5-[(3-chloro-4-fluorophenyl)carbamoyl]-2H,4H,5H,6H,7H-pyrazolo[4,3-c]pyridine-3-amido}cyclopropyl)benzoic acid] | < 100000 nM
CN(C(=O)c1cnn2c1CN(C(=O)Nc1ccc(F)c(Cl)c1)CC2)C1(c2cccc(C(=O)O)c2)CC1 [Example 1, 3-(1-{N-methyl-5-[(3-chloro-4-fluorophenyl)carbamoyl]-4H,5H,6H,7H-pyrazolo[1,5-a]pyrazine-3-amido}cyclopropyl)benzoic acid] | < 1000 nM
CN(C(=O)c1cnn2c1CN(C(=O)Nc1ccc(F)c(Cl)c1)CC2)C1(c2cc(C(=O)O)on2)CC1 [Example 27, 3-(1-{N-methyl-5-[(3-chloro-4-fluorophenyl)carbamoyl]-4H,5H,6H,7H-pyrazolo[1,5-a]pyrazine-3-amido}cyclopropyl)-1,2-oxazole-5-carboxylic acid #] | < 1000 nM
O=C(O)c1cccc(C2(NC(=O)c3cnn4c3CN(C(=O)Nc3ccc(F)c(Cl)c3)CC4)CC2)c1 [Example 18, 3-(1-{5-[(3-chloro-4-fluorophenyl)carbamoyl]-4H,5H,6H,7H-pyrazolo[1,5-a]pyrazine-3-amido}cyclopropyl)benzoic acid] | 1000 to 10000 nM
C[C@@H](NC(=O)c1noc2c1CN(C(=O)Nc1ccc(F)c(Cl)c1)CC2)C(F)(F)F [Example 8, N5-(3-chloro-4-fluorophenyl)-N3-[(2R)-1,1,1-trifluoropropan-2-yl]-4H,5H,6H,7H-[1,2]oxazolo[4,5-c]pyridine-3,5-dicarboxamide] | < 1000 nM
CC1Cn2ncc(C(=O)N(C)C3(c4ccc(C(=O)O)cc4)CC3)c2CN1C(=O)Nc1ccc(F)c(Cl)c1 (centres unmarked) [Example 9, 4-(1-{N-methyl-5-[(3-chloro-4-fluorophenyl)carbamoyl]-6-methyl-4H,5H,6H,7H-pyrazolo[1,5-a]pyrazine-3-amido}cyclopropyl)benzoic acid] | < 1000 nM
O=C(O)c1ccc(C2(NC(=O)c3cnn4c3CN(C(=O)Nc3ccc(F)c(Cl)c3)CC4)CC2)nc1 [Example 6, 6-(1-{5-[(3-chloro-4-fluorophenyl)carbamoyl]-4H,5H,6H,7H-pyrazolo[1,5-a]pyrazine-3-amido}cyclopropyl)pyridine-3-carboxylic acid] | < 1000 nM
CN(C(=O)c1[nH]nc2c1CN(C(=O)Nc1ccc(F)c(Cl)c1)CC2)C1(c2ncc(C(=O)O)cn2)CC1 [Example 12, 2-(1-{N-methyl-5-[(3-chloro-4-fluorophenyl)carbamoyl]-2H,4H,5H,6H,7H-pyrazolo[4,3-c]pyridine-3-amido}cyclopropyl)pyrimidine-5-carboxylic acid] | 1000 to 10000 nM
